The values below come from patent publication US20180030500A1, “ENRICHMENT AND SELECTIVE CULTURE OF MYCOBACTERIA” (priority 2015, published 2018).

For assay [1], the system named is Fungi/yeasts. The note with it: 8 strains, 7 days.
Assay [2] relates to Mycobacteria. The note with it: 20 strains, 7 days.
[3] abbreviates: selective agent 5 mg/l in medium L.
The mark [4] stands for this setting: selective agent 10 mg/l in medium L.
Where [5] appears, read: selective agent 20 mg/l in medium L.

Read-outs that look alike come from different tables or passages of the source.

Regarding `C[C@@H]1[C@H](O)[C@@H](C)/C=C/C=C/C=C/C=C/C=C/C=C/C=C/[C@H](O[C@@H]2O[C@H](C)[C@@H](O)[C@H](N)[C@@H]2O)C[C@@H]2O[C@](O)(C[C@@H](O)C[C@@H](O)[C@H](O)CC[C@@H](O)C[C@@H](O)CC(=O)O[C@H]1C)C[C@H](O)[C@H]2C(=O)O` [amphotericin B], the “Number of strains having shown growth” value in assay [1] (setting [3]) was 6; in assay [1] (setting [4]) it was 4; in assay [1] (setting [5]), 3; in assay [2] (setting [3]), 20; in assay [2] (setting [4]), 20; in assay [2] (setting [5]), 20. Also, the “Percentage of strains having shown growth” value in assay [1] (setting [3]) is “(75%)”; in assay [1] (setting [4]), “(50%)”; in assay [1] (setting [5]), “(37.5%)”; in assay [2] (setting [3]), “(100%)”; in assay [2] (setting [4]), “(100%)”; in assay [2] (setting [5]), “(100%)”.
